Assay results reported in US12036194B1, “Methods of administering solriamfetol to lactating women” (Axsome Malta Ltd., priority 2022, dated 2024).
Counter-ions that a name gives are not always drawn. Like-named read-outs stand apart in the source and are kept apart here.

How the values were obtained:
[1] = animals tested; cited from earlier work
[2] = cited from earlier work
[3] = Phase 4 open-label single-dose study: pharmacokinetics of solriamfetol in plasma of healthy postpartum women; type: in vivo, human; details: for AUC(0-inf) / AUC(0-t) / Cmax / Vd/F / half-life / Tmax: female, human, po, 150 mg
Experimental: (§1) A Phase 4, open-label, single-dose study to evaluate the pharmacokinetics (PK) of solriamfetol in the breast milk and plasma of healthy postpartum women following oral administration of a 150 mg solriamfetol tablet.
(§2) The study was conducted in 6 healthy adult lactating women who were between 15 and 37 weeks postpartum and were administered a single oral dose of SUNOSI 150 mg. SUNOSI was excreted in breast milk with a milk to plasma AUC ratio of approximately 2:1. […] The average amount that would be passed to the infant was estimated to be 0.59 mg over 24 hours, which is about 4.0% of the maternal dose on a weight-adjusted basis. The data from the lactation study indicate that SUNOSI is transferred to breastmilk in nursing mothers, with the relative infant dose (RID) is approximately 4% of the maternal weight-adjusted dosage. Data to assess the effects of SUNOSI on a breastfed infant or on milk production is not provided. The developmental and health benefits of breastfeeding should be considered along with the mother's clinical need for SUNOSI and any potential adverse effects on the breastfed child from SUNOSI or from the underlying maternal condition. Breastfed infants should be monitored for adverse reactions, such as agitation, insomnia, anorexia, and reduced weight gain.
(§3) On Day −1, eligible subjects underwent the baseline procedures. On Day 1, 2 hours after a light breakfast, subjects were to receive a single dose of solriamfetol 150 mg with 240 mL of water. Subjects had to fast for approximately 4 hours after the first dose; water was allowed except for 1 hour before and 1 hour after dosing with the study drug.
(§4) Pharmacokinetic analysis of breast milk obtained from both breasts (by pumping) was evaluated prior to dose administration and at intervals up to 72 hours postdose. Blood samples were also collected for plasma solriamfetol quantitation and PK analysis predose and at timepoints up to 72 hours postdose. Solriamfetol breast milk and plasma concentrations were measured using validated bioanalytical methods. Safety was assessed throughout the study by 12-lead ECG, vital sign measurements, the Columbia-Suicide Severity Rating Scale (C-SSRS), and the incidence of adverse events (AE).
Blood samples for plasma PK evaluation were collected at the following time points: Predose, 1, 1.5, 3, 6, 8.5, 10, 13, 15, 21, 24, 28, 36, 44, and 72 hours following dosing on Day 1. General study methodology is outlined in Table 6.
(§5) Serial blood samples (4 mL) were collected and dispensed into labeled K2EDTA tubes. The actual time of blood collection for all samples was recorded on the eCRF. Solriamfetol concentration in breast milk and plasma were determined using a validated bioanalytical method (LC-MS/MS) at Origin Bioanalytical Laboratory. The analytical range (lower limit of quantitation [LLOQ] to upper limit of quantitation) for plasma solriamfetol was 8.42 to 4210.00 ng/mL, and breast milk solriamfetol was 10.0 to 8000 ng/mL.
Pharmacokinetic parameters were derived with Phoenix® WinNonlin® Version 8.3 (Certara, Inc., Princeton, New Jersey, USA) and/or SAS© Version 9.4 (SAS Institute, Inc., Cary, North Carolina, USA).
Pharmacokinetic concentrations and parameters were summarized using descriptive statistics, including n, arithmetic mean, SD, coefficient of variation (CV %), median, min, max, Geometric mean (Geo-mean) and the geometric coefficient of variation (Geo-CV %). For the PK parameter tmax, only n, median, minimum, and maximum was presented.

[4] = Sunosi label, cited from earlier work
[5] = Phase 4 open-label single-dose study: pharmacokinetics of solriamfetol in breast milk of healthy postpartum women; type: in vivo, human; details: for Kp / AUC(0-inf) / AUC(0-t) / Cmax / half-life / Tmax: female, human, po, 150 mg; for Kp: breast milk / plasma
Experimental: as §1, §2, §3, §4
Breast milk collection: Solriamfetol concentration in breast milk and plasma was evaluated based on samples collected prior to and postdose on Days 1 to 4. Breast milk was collected from both breasts, using electronic breast pumps, during the following intervals: From −2 to 0 at predose and at 0 to 2, 2 to 4, 4 to 8, 8 to 12, 12 to 18, 18 to 24, 24 to 32, 32 to 40, 40 to 48, and 48 to 72 hours postdose on Day 1. The midpoint of each breast milk collection interval was used as the time variable.
Breast milk was collected as often as needed during the assigned intervals; however, at the end of each interval, breast milk was pumped from both breasts and collected. At the end of each collection interval, all milk expressed from both breasts during that interval was pooled. The milk was thoroughly mixed by gently inverting the collection vessel 10 times to ensure homogeneity in milk composition. The weight and volume of the collected milk during each interval was also recorded.
as §5
Pharmacokinetic parameters were derived with Phoenix® WinNonlin® Version 8.3 (Certara, Inc., Princeton, New Jersey, USA) and/or SAS© Version 9.4 (SAS Institute, Inc., Cary, North Carolina, USA). […]

[6] = single oral 150 mg solriamfetol tablet, N = 6
[7] = single oral 150 mg solriamfetol tablet, N = 6, hydrochloride
[8] = single oral 150 mg solriamfetol tablet, N = 6, listed as solriamfetol, hydrochloride
[9] = healthy male and female patients not postpartum
[10] = breast milk, single oral 150 mg solriamfetol tablet, N = 6, hydrochloride
[11] = breast milk, single oral 150 mg, N = 6
[12] = breast milk, single oral 150 mg, N = 6, hydrochloride
[13] = breast milk, single oral 150 mg, N = 6, listed as solriamfetol, hydrochloride
[14] = over 72 hours, single oral 150 mg

For `NC(=O)OC[C@H](N)Cc1ccccc1` [Solriamfetol, (R)-2-amino-3-phenylpropyl carbamate (APC) hydrochloride], the “absorption and oral bioavailability” value [1] is given as “rapid absorption and high oral bioavailability”, the “exposure (maximum serum concentration and AUC) versus dose” value [1] is given as “dose-proportional exposure” and the “PK in fed versus fasted subjects” value ([2]; fed versus fasted) is given as “satisfied the criteria for bioequivalence”. The systemic elimination half-life ([2]; in vivo) was 5.0 to 7.6 h, the estimated accumulation ratio ([2]; once daily dosing) was 1.06 and the AUC(0-inf) ([3]; single oral 150 mg solriamfetol tablet, N = 6, read-out: AUC0-inf, Geometric Mean) was 6.34 µg·h/mL. It also gave an AUC(0-t) ([3]; single oral 150 mg solriamfetol tablet, N = 6, read-out: AUC0-t, Arithmetic Mean (CV %)) of 6.44 µg·h/mL, an AUC(0-t) ([3]; single oral 150 mg solriamfetol tablet, N = 6, read-out: AUC0-t, Geometric Mean) of 6.24 µg·h/mL and a Cmax ([3]; single oral 150 mg solriamfetol tablet, N = 6, read-out: Cmax, Arithmetic Mean (CV %)) of 0.905 µg/mL. For the same compound, the Cmax ([3]; single oral 150 mg solriamfetol tablet, N = 6, read-out: Cmax, Geometric Mean) was 0.893 µg/mL, the Vd/F ([3]; single oral 150 mg solriamfetol tablet, N = 6, read-out: Vz/F, Arithmetic Mean (CV %)) was 169 L and the Vd/F ([3]; single oral 150 mg solriamfetol tablet, N = 6, read-out: Vz/F, Geometric Mean) was 162 L. The half-life ([3]; single oral 150 mg solriamfetol tablet, N = 6, read-out: t1/2, Arithmetic Mean (CV %) (converted)) was 4.8 h, the half-life ([3]; single oral 150 mg solriamfetol tablet, N = 6, read-out: t1/2, Geometric Mean (converted)) was 4.75 h and the Tmax ([3]; single oral 150 mg solriamfetol tablet, N = 6, read-out: tmax, Median (min, max)) was 1.25 h. It also gave an AUC(0-inf) ([3]; single oral 150 mg solriamfetol tablet, healthy postpartum women N = 6, read-out: AUC0-inf, Arithmetic Mean (CV %)) of 6.54 µg·h/mL, a half-life ([3]; single oral 150 mg, read-out: t1/2 (approximate) (converted)) of ~5 h and a Tmax ([3]; single oral 150 mg, read-out: tmax range) of 1 to 3 h. For the same compound, the “CL/F, Geometric Mean” value [3, 6] was 23.66 L/h, the “Lambda_z, Arithmetic Mean (CV %)” value [3, 6] was 0.1478 (19.1) 1/h and the “Lambda_z, Geometric Mean” value [3, 6] was 0.1459 h⁻¹. The “CL/F, Arithmetic Mean (CV %)” value [3, 7] was 24.40 (26.8) L/h, the “t1/2, Arithmetic Mean (CV %)” value [3, 7] was 4.804 (15.2) h and the “CL/F, Arithmetic Mean (CV %)” value [3, 8] was 24.40 L/h. For the same compound, the “tmax, Median (min, max)” value [3, 8] was 1 h, the “apparent mean elimination plasma half-life” value [4, 9] was 7.1 h and the oral bioavailability [4, 9] was “approximately 95%”. For the same compound, the “median Tmax of peak plasma concentration” value ([4]; post-dose under fasted conditions, not postpartum) was 2 h, the “Milk:Plasma Ratio, Arithmetic Mean (CV %)” value ([5]; AUC in breast milk divided by AUC in plasma, single oral 150 mg, N = 6) was 2.136 (35.8) and the “time by which near complete excretion in breast milk was observed” value ([5]; after dosing, single oral 150 mg) was ≤ 24 h. The “Amilk, Geometric Mean” value ([5]; amount excreted in breast milk over 72 hours, single oral 150 mg, N = 6) was 0.5651 mg, the “Amilk, Arithmetic Mean (CV %)” value ([5]; amount excreted in breast milk over 72 hours, single oral 150 mg, N = 6, hydrochloride) was 0.6880 (67.9) mg and the “Amilk, Arithmetic Mean (CV %)” value ([5]; amount excreted in breast milk over 72 hours, single oral 150 mg, N = 6, listed as solriamfetol, hydrochloride) was 0.6880 mg. The “Lambda_z, Arithmetic Mean (CV %)” value ([5]; breast milk, single oral 150 mg solriamfetol tablet, N = 6) was 0.1446 (18.8) 1/h, the “t1/2, Arithmetic Mean (CV %)” value [5, 10] was 4.954 (21.4) h and the “tmax, Median (min, max)” value [5, 10] was 1.12 h. The “Daily Infant Dose, Geometric Mean” value [5, 11] was 0.5856 mg, the “Relative Infant Dose, Geometric Mean” value [5, 11] was 4.030% and the “Daily Infant Dose, Arithmetic Mean (CV %)” value [5, 12] was 0.6927 (63.5) mg. The “Relative Infant Dose, Arithmetic Mean (CV %)” value [5, 12] was 4.602 (60.6) %, the “Daily Infant Dose, Arithmetic Mean (CV %)” value [5, 13] was 0.6927 mg and the “Relative Infant Dose, Arithmetic Mean (CV %)” value [5, 13] was 4.602%. For the same compound, the “average amount that would be passed to the infant” value ([5]; estimated, over 24 hours, single oral 150 mg) was 0.59 mg, the “share of the total amount excreted in breast milk over 72 hours” value ([5]; excreted by 8 hours) was “approximately 78%” and the “share of the total amount excreted in breast milk over 72 hours” value ([5]; excreted by 24 hours) was ~98%. It also gave a Kp ([5]; AUC in breast milk divided by AUC in plasma, single oral 150 mg, N = 6, read-out: Milk:Plasma Ratio, Geometric Mean) of 2.05, a Kp ([5]; breast milk vs plasma, single oral 150 mg, read-out: solriamfetol exposure/concentrations (Cmax, AUCs) in breast milk relative to plasma) of ~2 and an AUC(0-inf) ([5]; breast milk, breast milk, single oral 150 mg solriamfetol tablet, N = 6, read-out: AUC0-inf, Geometric Mean) of 12.9 µg·h/mL. The AUC(0-t) ([5]; breast milk, breast milk, single oral 150 mg solriamfetol tablet, N = 6, read-out: AUC0-t, Arithmetic Mean (CV %)) was 13.7 µg·h/mL, the AUC(0-t) ([5]; breast milk, breast milk, single oral 150 mg solriamfetol tablet, N = 6, read-out: AUC0-t, Geometric Mean) was 12.8 µg·h/mL and the Cmax ([5]; breast milk, breast milk, single oral 150 mg solriamfetol tablet, N = 6, read-out: Cmax, Arithmetic Mean (CV %)) was 2.07 µg/mL. It also gave a Cmax ([5]; breast milk, breast milk, single oral 150 mg solriamfetol tablet, N = 6, read-out: Cmax, Geometric Mean) of 1.86 µg/mL, a half-life ([5]; breast milk, breast milk, single oral 150 mg solriamfetol tablet, N = 6, read-out: t1/2, Arithmetic Mean (CV %) (converted)) of ~5 h and a half-life ([5]; breast milk, breast milk, single oral 150 mg solriamfetol tablet, N = 6, read-out: t1/2, Geometric Mean (converted)) of 4.87 h. It also gave a Tmax ([5]; breast milk, breast milk, single oral 150 mg solriamfetol tablet, N = 6, read-out: tmax, Median (min, max)) of ~1.1 h, an AUC(0-inf) ([5]; breast milk, breast milk, single oral 150 mg solriamfetol tablet, healthy postpartum women N = 6, read-out: AUC0-inf, Arithmetic Mean (CV %)) of 13.8 µg·h/mL and a half-life ([5]; breast milk, breast milk, single oral 150 mg, read-out: t1/2 (approximate) (converted)) of ~5 h. For the same compound, the Tmax ([5]; breast milk, breast milk, single oral 150 mg, read-out: tmax range) was 1 to 3 h, the daily infant dose ([5]; further analysis, based on nominal infant weight of 6 kg, maternal single oral 150 mg) was 0.112 mg/kg and the “Arithmetic mean±SD amount excreted in breast milk” value [5, 14] was 0.6880 ± 0.4672 mg. For the same compound, the “cumulative median amount excreted in breast milk” value [5, 14] was 0.67 mg.
